Data from US20240368214A1, “POSITIVE NMDA-MODULATING COMPOUNDS AND METHODS OF USE THEREOF” (SAGE THERAPEUTICS, INC., priority 2021, published 2024).
pEC50: −log10 of the molar value. Where two headings read alike, the source gives them in different places. Values belong to the molecule of their own block, whether it stands above or below them.

Biological target: T1, recombinant human GluN1/GluN2A receptor (Homo sapiens, UniProt Q05586+Q12879)
T1 construct: expressed in transfected cells; host or cells: HEK293, tetracycline-inducible expression
T1 sequence (Q12879 23-1464, other chains not shown): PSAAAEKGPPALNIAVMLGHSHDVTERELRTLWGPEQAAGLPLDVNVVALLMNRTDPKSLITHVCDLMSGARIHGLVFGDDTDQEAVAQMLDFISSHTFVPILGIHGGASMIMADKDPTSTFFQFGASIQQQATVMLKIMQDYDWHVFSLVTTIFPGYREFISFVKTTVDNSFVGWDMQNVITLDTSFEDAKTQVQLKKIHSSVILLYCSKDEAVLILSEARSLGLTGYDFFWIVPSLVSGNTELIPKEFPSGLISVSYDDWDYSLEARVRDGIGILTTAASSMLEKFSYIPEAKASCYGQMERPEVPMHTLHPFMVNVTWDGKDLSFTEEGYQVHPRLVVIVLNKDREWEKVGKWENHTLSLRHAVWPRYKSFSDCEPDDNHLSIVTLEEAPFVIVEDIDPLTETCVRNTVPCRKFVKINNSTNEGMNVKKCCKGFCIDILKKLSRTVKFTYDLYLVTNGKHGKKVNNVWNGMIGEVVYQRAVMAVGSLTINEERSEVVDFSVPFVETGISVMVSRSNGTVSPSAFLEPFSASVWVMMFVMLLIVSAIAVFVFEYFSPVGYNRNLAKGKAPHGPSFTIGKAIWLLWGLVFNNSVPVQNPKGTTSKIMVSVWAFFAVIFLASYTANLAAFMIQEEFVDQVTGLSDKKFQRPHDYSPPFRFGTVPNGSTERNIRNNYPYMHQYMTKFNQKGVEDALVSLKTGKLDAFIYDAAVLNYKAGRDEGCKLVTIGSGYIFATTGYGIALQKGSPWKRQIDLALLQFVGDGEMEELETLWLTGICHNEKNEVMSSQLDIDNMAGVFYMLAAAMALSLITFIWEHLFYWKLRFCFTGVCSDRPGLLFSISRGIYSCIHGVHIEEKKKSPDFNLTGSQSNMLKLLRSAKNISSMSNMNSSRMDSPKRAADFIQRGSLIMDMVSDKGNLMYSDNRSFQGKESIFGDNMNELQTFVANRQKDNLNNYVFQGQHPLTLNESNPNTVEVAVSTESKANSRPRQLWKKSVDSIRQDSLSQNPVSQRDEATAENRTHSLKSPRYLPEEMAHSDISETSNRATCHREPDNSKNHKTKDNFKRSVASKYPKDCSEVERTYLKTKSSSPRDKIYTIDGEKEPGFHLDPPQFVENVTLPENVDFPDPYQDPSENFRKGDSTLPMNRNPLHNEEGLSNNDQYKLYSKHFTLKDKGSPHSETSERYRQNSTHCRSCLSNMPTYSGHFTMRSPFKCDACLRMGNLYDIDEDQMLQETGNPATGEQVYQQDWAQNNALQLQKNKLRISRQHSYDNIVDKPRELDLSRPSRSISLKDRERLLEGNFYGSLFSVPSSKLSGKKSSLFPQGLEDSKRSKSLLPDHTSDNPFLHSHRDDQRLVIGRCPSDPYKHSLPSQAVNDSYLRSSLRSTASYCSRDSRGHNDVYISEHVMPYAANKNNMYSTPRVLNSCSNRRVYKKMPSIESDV
Assay: Whole-cell patch clamp of mammalian cells (Syncropatch 384i), NMDA modulation
Format: cell-based
Details: HEK293 cells, human GluN1/GluN2A, glutamate 1 μM / glycine 100 μM, -80 mV, peak amplitude increase; for pEC50: read-out: EC50
Procedure, shortened: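 Modulation read as fold rise in peak current, (Icomp/Icontrol)−1, from 8 concentrations with ≥2 wells each, four-parameter fit. Compound pre-incubated 120 s then co-applied with 1 μM glutamate plus 100 μM glycine; tetracycline-inducible HEK293 GluN1/GluN2A cells clamped at −80 mV.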

SMILES: CC[C@]1(O)CC[C@@]2(C)C(=CC[C@H]3[C@@H]4CC[C@H]([C@H](C)CC[C@@H](O)C5(C#N)CC5)[C@@]4(C)CC[C@@H]32)C1 [Compound C-21, 1-((1R,4R)-4-((3S,8S,9S,10R,13R,14S,17R)-3-ethyl-3-hydroxy-10,13-dimethyl-2,3,4,7,8,9,10,11,12,13,14,15,16,17-tetradecahydro-1H-cyclopenta[a]phenanthren-17-yl)-1-hydroxypentyl)cyclopropane-1-carbonitrile]
pEC50 (Table C-2): 7.00 to 9.00

SMILES: C[C@H](CC[C@H](O)C1(C#N)CC1)[C@H]1CC[C@H]2[C@@H]3CC=C4C[C@@](C)(O)CC[C@]4(C)[C@H]3CC[C@]12C [Compound C-22, 1-((1S,4R)-1-hydroxy-4-((3S,8S,9S,10R,13R,14S,17R)-3-hydroxy-3,10,13-trimethyl-2,3,4,7,8,9,10,11,12,13,14,15,16,17-tetradecahydro-1H-cyclopenta[a]phenanthren-17-yl)pentyl)cyclopropane-1-carbonitrile]
Emax (Table C-2): < 100%
pEC50 (Table C-2): 7.00 to 9.00

SMILES: C[C@H](CC[C@@H](O)C1(C#N)CC1)[C@H]1CC[C@H]2[C@@H]3CC=C4C[C@@](C)(O)CC[C@]4(C)[C@H]3CC[C@]12C [Compound C-23, 1-((1R,4R)-1-hydroxy-4-((3S,8S,9S,10R,13R,14S,17R)-3-hydroxy-3,10,13-trimethyl-2,3,4,7,8,9,10,11,12,13,14,15,16,17-tetradecahydro-1H-cyclopenta[a]phenanthren-17-yl)pentyl)cyclopropane-1-carbonitrile]
pEC50 (Table C-2): 7.00 to 9.00

SMILES: C[C@H](CC[C@@H](O)C1(C#N)CCC1)[C@H]1CC[C@H]2[C@@H]3CC=C4C[C@@](C)(O)CC[C@]4(C)[C@H]3CC[C@]12C [Compound C-24, 1-((1R,4R)-1-hydroxy-4-((3S,8S,9S,10R,13R,14S,17R)-3-hydroxy-3,10,13-trimethyl-2,3,4,7,8,9,10,11,12,13,14,15,16,17-tetradecahydro-1H-cyclopenta[a]phenanthren-17-yl)pentyl)cyclobutane-1-carbonitrile]
pEC50 (Table C-2): 7.00 to 9.00

SMILES: C[C@H](CC[C@H](O)C1(C#N)CCC1)[C@H]1CC[C@H]2[C@@H]3CC=C4C[C@@](C)(O)CC[C@]4(C)[C@H]3CC[C@]12C [Compound C-25, 1-((1S,4R)-1-hydroxy-4-((3S,8S,9S,10R,13R,14S,17R)-3-hydroxy-3,10,13-trimethyl-2,3,4,7,8,9,10,11,12,13,14,15,16,17-tetradecahydro-1H-cyclopenta[a]phenanthren-17-yl)pentyl)cyclobutane-1-carbonitrile]
Emax (Table C-2): < 100%
pEC50 (Table C-2): 7.00 to 9.00

SMILES: CC[C@]1(O)CC[C@]2(C)C3=CC[C@]4(C)[C@@H]([C@H](C)CC[C@H](O)C5(C#N)CC5)CC[C@H]4[C@@H]3CC[C@H]2C1 [Compound C-26, 1-((1S,4R)-4-((3S,5S,8S,10S,13R,14S,17R)-3-ethyl-3-hydroxy-10,13-dimethyl-2,3,4,5,6,7,8,10,12,13,14,15,16,17-tetradecahydro-1H-cyclopenta[a]phenanthren-17-yl)-1-hydroxypentyl)cyclopropane-1-carbonitrile]
pEC50 (Table C-2): 7.00 to 9.00
pEC50 (Table E-2): 7.00 to 9.00

SMILES: CC[C@]1(O)CC[C@]2(C)C3=CC[C@]4(C)[C@@H]([C@H](C)CC[C@@H](O)C5(C#N)CC5)CC[C@H]4[C@@H]3CC[C@H]2C1 [Compound C-27, 1-((1R,4R)-4-((3S,5S,8S,10S,13R,14S,17R)-3-ethyl-3-hydroxy-10,13-dimethyl-2,3,4,5,6,7,8,10,12,13,14,15,16,17-tetradecahydro-1H-cyclopenta[a]phenanthren-17-yl)-1-hydroxypentyl)cyclopropane-1-carbonitrile]
pEC50 (Table C-2): 7.00 to 9.00
pEC50 (Table E-2): 7.00 to 9.00

SMILES: CC[C@]1(O)CC[C@]2(C)C3=CC[C@]4(C)[C@@H]([C@H](C)CC[C@@H](O)C(C)(C)C#N)CC[C@H]4[C@@H]3CC[C@H]2C1 [Compound C-28, (3R,6R)-6-((3S,5S,8S,10S,13R,14S,17R)-3-ethyl-3-hydroxy-10,13-dimethyl-2,3,4,5,6,7,8,10,12,13,14,15,16,17-tetradecahydro-1H-cyclopenta[a]phenanthren-17-yl)-3-hydroxy-2,2-dimethylheptanenitrile]
pEC50 (Table C-2): 7.00 to 9.00
pEC50 (Table E-2): 7.00 to 9.00

SMILES: CC[C@]1(O)CC[C@]2(C)C3=CC[C@]4(C)[C@@H]([C@H](C)CC[C@H](O)C(C)(C)C#N)CC[C@H]4[C@@H]3CC[C@H]2C1 [Compound C-29, (3S,6R)-6-((3S,5S,8S,10S,13R,14S,17R)-3-ethyl-3-hydroxy-10,13-dimethyl-2,3,4,5,6,7,8,10,12,13,14,15,16,17-tetradecahydro-1H-cyclopenta[a]phenanthren-17-yl)-3-hydroxy-2,2-dimethylheptanenitrile]
pEC50 (Table C-2): 7.00 to 9.00
pEC50 (Table E-2): 7.00 to 9.00

SMILES: C[C@H](CC[C@H](O)C1(C#N)CCC1)[C@H]1CC[C@H]2[C@@H]3CC[C@H]4C[C@@](C)(O)CC[C@]4(C)C3=CC[C@]12C [Compound C-30, 1-((1S,4R)-1-hydroxy-4-((3S,5S,8S,10S,13R,14S,17R)-3-hydroxy-3,10,13-trimethyl-2,3,4,5,6,7,8,10,12,13,14,15,16,17-tetradecahydro-1H-cyclopenta[a]phenanthren-17-yl)pentyl)cyclobutane-1-carbonitrile]
pEC50 (Table C-2): 6.30 to 7.00
pEC50 (Table E-2): 6.30 to 7.00

SMILES: C[C@H](CC[C@@H](O)C1(C#N)CCC1)[C@H]1CC[C@H]2[C@@H]3CC[C@H]4C[C@@](C)(O)CC[C@]4(C)C3=CC[C@]12C [Compound C-31, 1-((1R,4R)-1-hydroxy-4-((3S,5S,8S,10S,13R,14S,17R)-3-hydroxy-3,10,13-trimethyl-2,3,4,5,6,7,8,10,12,13,14,15,16,17-tetradecahydro-1H-cyclopenta[a]phenanthren-17-yl)pentyl)cyclobutane-1-carbonitrile]
pEC50 (Table C-2): 7.00 to 9.00
pEC50 (Table E-2): 7.00 to 9.00

SMILES: C[C@H](CC[C@@H](O)C1(C#N)CC1)[C@H]1CC[C@H]2[C@@H]3CC[C@H]4C[C@@](C)(O)CC[C@]4(C)C3=CC[C@]12C [Compound C-32, 1-((1R,4R)-1-hydroxy-4-((3S,5S,8S,10S,13R,14S,17R)-3-hydroxy-3,10,13-trimethyl-2,3,4,5,6,7,8,10,12,13,14,15,16,17-tetradecahydro-1H-cyclopenta[a]phenanthren-17-yl)pentyl)cyclopropane-1-carbonitrile]
pEC50 (Table C-2): 7.00 to 9.00
pEC50 (Table E-2): 7.00 to 9.00

SMILES: C[C@H](CC[C@H](O)C1(C#N)CC1)[C@H]1CC[C@H]2[C@@H]3CC[C@H]4C[C@@](C)(O)CC[C@]4(C)C3=CC[C@]12C [Compound C-33, 1-((1S,4R)-1-hydroxy-4-((3S,5S,8S,10S,13R,14S,17R)-3-hydroxy-3,10,13-trimethyl-2,3,4,5,6,7,8,10,12,13,14,15,16,17-tetradecahydro-1H-cyclopenta[a]phenanthren-17-yl)pentyl)cyclopropane-1-carbonitrile]
pEC50 (Table C-2): 6.30 to 7.00
pEC50 (Table E-2): 6.30 to 7.00

SMILES: C[C@H](CC[C@@H](O)C(C)(C)C#N)[C@H]1CC[C@H]2[C@@H]3CC[C@H]4C[C@@](C)(O)CC[C@]4(C)C3=CC[C@]12C [Compound C-34, (3R,6R)-3-hydroxy-6-((3S,5S,8S,10S,13R,14S,17R)-3-hydroxy-3,10,13-trimethyl-2,3,4,5,6,7,8,10,12,13,14,15,16,17-tetradecahydro-1H-cyclopenta[a]phenanthren-17-yl)-2,2-dimethylheptanenitrile]
pEC50 (Table C-2): 7.00 to 9.00
pEC50 (Table E-2): 7.00 to 9.00

SMILES: C[C@H](CC[C@H](O)C(C)(C)C#N)[C@H]1CC[C@H]2[C@@H]3CC[C@H]4C[C@@](C)(O)CC[C@]4(C)C3=CC[C@]12C [Compound C-35, (3S,6R)-3-hydroxy-6-((3S,5S,8S,10S,13R,14S,17R)-3-hydroxy-3,10,13-trimethyl-2,3,4,5,6,7,8,10,12,13,14,15,16,17-tetradecahydro-1H-cyclopenta[a]phenanthren-17-yl)-2,2-dimethylheptanenitrile]
pEC50 (Table C-2): 7.00 to 9.00
pEC50 (Table E-2): 7.00 to 9.00

Emax (Table D-2): < 100%
pEC50 (Table D-2): < 6.00
SMILES: CC[C@@]1(O)CC[C@@H]2CC[C@@H]3[C@H](CC[C@]4(C)[C@@H]([C@H](C)CC[C@@](C)(O)C(F)(F)F)CC[C@@H]34)[C@@]2(C)CC1 [Compound D-1, (1R,3aS,3bR,5aS,8R,10aS,10bS,12aR)-8-ethyl-10a,12a-dimethyl-1-((2R,5R)-6,6,6-trifluoro-5-hydroxy-5-methylhexan-2-yl)octadecahydrocyclohepta[a]cyclopenta[f]naphthalen-8-ol]

Emax (Table D-2): < 100%
pEC50 (Table D-2): < 6.00
SMILES: CC[C@]1(O)CC[C@@H]2CC[C@@H]3[C@H](CC[C@]4(C)[C@@H]([C@H](C)CC[C@@](C)(O)C(F)(F)F)CC[C@@H]34)[C@@]2(C)CC1 [Compound D-2, (1R,3aS,3bR,5aS,8S,10aS,10bS,12aR)-8-ethyl-10a,12a-dimethyl-1-((2R,5R)-6,6,6-trifluoro-5-hydroxy-5-methylhexan-2-yl)octadecahydrocyclohepta[a]cyclopenta[f]naphthalen-8-ol]
